Literature values as cited in patent US20020147153A1, “Nutritional supplement to alleviate symptoms associated with reduced levels of serotonin” (Functional Foods, Inc., priority 2001, published 2002).

Legend:
[1] = area under glycemic response curve, 2-hour period after 50 g carbohydrate, relative to white bread or glucose standard

SMILES	time to increased mental alertness (safe and rapid manner)	time of maximum effect (then almost entirely excreted) [h]	glycemic index (GI) [1]
Cn1c(=O)c2c(ncn2C)n(C)c1=O [Caffeine]	approximately 30 minutes	2 to 4.5	–
O=C(CO)[C@@H](O)[C@H](O)[C@H](O)CO [Fructose]	–	–	32
